Experimental data as given in patent publication US20240240226A1, “FLUOROGENIC ASSAY FOR RAPID SCREENING OF BACTERIAL BETA-LACTAMASE ACTIVITY” (The Board of Trustees of the Leland Stanford Junior …, priority 2021, published 2024).

Columns and labels:
E. coli = test: Two-step filtration CDA/H2O2 urine assay, negative control E. coli; assay type: cell-based; conditions: E. coli without β-lactamase, concentrated from urine
Method: (§1) FIG. 4 illustrates the detection of lactam-resistant bacteria in urine samples. a) Illustration of the workflow in bacteria isolation and concentration from a urine sample for detection. The sample is first filtrated by a 5-μm filter to trap cells and large debris followed by a 0.22-μm filter to trap bacteria. The 0.22-μm filter is washed once before PBS/H2O2 (1 mM) is directed through the 0.22-μm filter in the opposite direction with a new syringe to recover the concentrated bacteria for detection in a plate reader. b) Longitudinal monitoring of fluorescence enhancement with CDA and concentrated E. coli, K. pneumoniae, K. pneumoniae/KPC, E. coli/TEM-1, E. coli/IMP-1, E. coli/KPC-3, E. cloacae/IMP, S. marcescens/SME, and E. coli/OXA-48 in the presence of H2O2 (1 mM). Star* indicate clinical isolates. The study was duplicated at room temperature with PBS as the buffer. The signal of CDA alone in PBS containing H2O2 (1 mM) was subtracted and the absolute values were plotted. The working concentration of CDA was 10 μM. Data were collected on a Tecan Safire microplate reader with excitation at 570 nm and emission at 600 nm. A.U. indicates arbitrary units. […]

TEM-1 Bla = biological target: T1, TEM-1 Bla (Escherichia coli, UniProt P62593); test: CDA fluorescence turn-on with recombinant TEM-1 Bla, esterase and H2O2; assay type: biochemical
T1 construct: TEV(Cys) (TEV site / Cys element as named in the plasmid); made in house; host or cells: E. coli (BL21 or TOP10)
T1 sequence (P62593 24-286 limits assumed): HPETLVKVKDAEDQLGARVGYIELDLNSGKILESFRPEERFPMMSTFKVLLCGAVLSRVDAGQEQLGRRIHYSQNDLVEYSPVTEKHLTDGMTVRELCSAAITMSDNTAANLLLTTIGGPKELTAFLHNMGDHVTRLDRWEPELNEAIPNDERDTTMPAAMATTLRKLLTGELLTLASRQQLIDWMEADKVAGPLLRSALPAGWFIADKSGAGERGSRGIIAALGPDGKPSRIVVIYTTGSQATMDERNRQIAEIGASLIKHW

K. pneumoniae = test: Two-step filtration CDA/H2O2 urine assay, negative control K. pneumoniae; assay type: cell-based; conditions: K. pneumoniae without β-lactamase, concentrated from urine
Method: as §1

E. coli/KPC-3 = test: CDA/H2O2 detection of live E. coli expressing KPC-3 carbapenemase; assay type: cell-based; conditions: CDA 10 μM, H2O2 1 mM, room temperature
Method: FIG. 23 illustrates the fluorescence enhancement of CDA incubated with different concentrations of E. coli expressing KPC-3 carbapenemase in PBS at room temperature; CDA, 10 μM, and H2O2, 1 mM. The signal of CDA in H2O2 was subtracted and the absolute values were plotted. Data were collected on a Tecan Safire microplate reader with excitation at 570 nm and emission at 600 nm. A.U. indicates arbitrary units.
Factoring the 100 μL assay volume, as low as 100 bacteria in one 96 well were detectable with the assay. A concentration of H2O2 at 1-2 mM efficiently oxidized the processed CDA to resorufin inside E. coli. Next, the assay was used to detect E. coli/IMP-1 and E. coli/KPC-3 (FIGS. 3e and 23). E. coli/IMP-1 was detected at […] within 2 hours, and E. coli/KPC-3 could be reliably detected at around 10^5-10^6 c.f.u./mL.
Bacteria growth and assay: E. coli (BL21 or TOP10) transformed to express TEM-1 Bla, IMP-1, and KPC3 were grown in LB medium and induced with 0.2% arabinose for 6-8 h at 30° C., 205 rpm. Colony forming units per milliliter (c.f.u./mL) were determined by measuring the UV absorbance at OD600.
For CDA incubation, 10 μM working solution was prepared freshly by diluting stock solution (1 mM in pure DMSO) in PBS (pH 7.05). A light-safe tube or foil wrap was used to prevent photobleaching.

CC(=O)Oc1ccc2c(c1)Oc1cc(OC(C)=O)ccc1N2C(=O)OCc1ccc(SCC2=C(C(=O)O)N3C(=O)[C@@H](NC(=O)Cc4ccccc4)[C@H]3SC2)cc1 [CDA, 3-(((4-(((3,7-diacetoxy-10H-phenoxazine-10-carbonyl)oxy)methyl)phenyl)thio)methyl)-8-oxo-7-(2-phenylacetamido)-5-thia-1-azabicyclo[4.2.0]oct-2-ene-2-carboxylic acid]
fluorescent signal of negative control (E. coli): slightly increased signal
minimum CDA concentration required for reporting β-lactamase/esterase activity (TEM-1 Bla; esterase 1 μg/mL, TEM-1 Bla 100 nM, H2O2 1 mM): 100 nM
fluorescence with TEM-1 Bla and esterase without H2O2 (TEM-1 Bla; no H2O2, oxidation by dissolved oxygen): displayed fluorescence turn-on
fluorescent signal of negative control (K. pneumoniae): almost undetectable
bacteria concentration reliably detected (E. coli/KPC-3): 10^5-10^6 c.f.u./mL
